Test results taken from patent publication US20220402935A1, “HETEROCYCLIC COMPOUND” (FIMECS, INC., priority 2019, published 2022).
Counter-ions that a name gives are not always drawn.

Legend:
[1] = biological target: T1, human XIAP_BIR3 domain purified protein (Homo sapiens, UniProt P98170); assay: XIAP binding inhibitory activity (HTRF, b-Smac ligand); details: for IC50: second symbol of cell, read-out: XIAP binding inhibition IC50 value; for inhibition at 3 µM: concentration of the test compound 3 μM, first symbol of cell, read-out: XIAP binding inhibition rate
T1 construct: purchased R & D
T1 sequence (P98170 252-356 limits assumed): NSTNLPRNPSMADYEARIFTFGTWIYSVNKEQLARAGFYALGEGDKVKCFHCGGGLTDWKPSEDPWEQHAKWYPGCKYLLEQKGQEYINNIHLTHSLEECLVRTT
Description: Human XIAP binding inhibitory activity was measured by the Homogeneous Time Resolved Fluorescence (HTRF) method with using commercially available human XIAP_BIR3 domain purified protein (R & D) and as a ligand a Smac N-terminal peptide (AVPIAQK (SEQ ID NO: 1)) (hereinafter referred to as “b-Smac”; Peptide Research Laboratories, Inc.) biotinylated at the C-terminus according to a conventional method.
The HTRF method will be described in detail below.
The test compound diluted with a reaction buffer (25 mM HEPES Buffer containing 100 mM NaCl, 0.1% BSA, and 0.1% triton X-100, pH 7.5) was added to a 384-well white shallow bottom plate (Greiner 784076) at 1 μL/well and flash centrifuged for 30 seconds. Subsequently, human XIAP_BIR3 domain purified protein was diluted with the reaction buffer to obtain a 90 nM sample diluent, and the resultant sample diluent was added to the above-mentioned white superficial plate at 4.5 μL/well and flash centrifuged for 30 seconds. Subsequently, b-Smac diluted to 90 nM with the reaction buffer was added to the above-mentioned white superficial plat at 4.5 μL/well and flash centrifuged for 30 seconds. A mixed solution of Anti-6 HIS-Cryptate (Eu^3+ Cryptate-conjugated mouse monoclonal antibody anti-6 Histidine; cisbio) and Streptavidin-XL^eat (Highgrade XL665-conjugated streptavidin; cisbio) both diluted 100-fold with HTRF detection buffer (cisbio) at a volume ratio of 1:1 was added to the above white superficial plate at 10 μL/well. After flash centrifuging the white shallow bottom plate for 30 seconds, the white shallow bottom plate was left at room temperature for 4 hours or more in the dark. The white superficial plate after being left was subjected to fluorescence intensity measurement (excitation wavelength: 320 nm, fluorescence wavelength: 665 nm and 615 nm) by EnVision (Perkin Elmer). The binding inhibition rate (%) was calculated based on the HTRF ratio in the presence of the test compound to the HTRF ratio in the absence of the test compound (fluorescence intensity at 665 nm/fluorescence intensity at 615 nm).
The XIAP binding inhibition rate (%) of test compounds was evaluated.

[2] = biological target: T2, IRAK-M (Homo sapiens, UniProt Q9Y616); assay: IRAK-M binding inhibitory activity (KINOMEscan active site-dependent competitive assay); set-up: purchased Eurofins Discover X; details: for remaining binding at 1 µM: concentration of the test compound 1 μM, first symbol of cell, read-out: IRAK-M binding inhibition activity % Ctrl; for IC50: second symbol of cell, read-out: IRAK-M binding inhibition IC50 value
T2 sequence (Q9Y616 1-596): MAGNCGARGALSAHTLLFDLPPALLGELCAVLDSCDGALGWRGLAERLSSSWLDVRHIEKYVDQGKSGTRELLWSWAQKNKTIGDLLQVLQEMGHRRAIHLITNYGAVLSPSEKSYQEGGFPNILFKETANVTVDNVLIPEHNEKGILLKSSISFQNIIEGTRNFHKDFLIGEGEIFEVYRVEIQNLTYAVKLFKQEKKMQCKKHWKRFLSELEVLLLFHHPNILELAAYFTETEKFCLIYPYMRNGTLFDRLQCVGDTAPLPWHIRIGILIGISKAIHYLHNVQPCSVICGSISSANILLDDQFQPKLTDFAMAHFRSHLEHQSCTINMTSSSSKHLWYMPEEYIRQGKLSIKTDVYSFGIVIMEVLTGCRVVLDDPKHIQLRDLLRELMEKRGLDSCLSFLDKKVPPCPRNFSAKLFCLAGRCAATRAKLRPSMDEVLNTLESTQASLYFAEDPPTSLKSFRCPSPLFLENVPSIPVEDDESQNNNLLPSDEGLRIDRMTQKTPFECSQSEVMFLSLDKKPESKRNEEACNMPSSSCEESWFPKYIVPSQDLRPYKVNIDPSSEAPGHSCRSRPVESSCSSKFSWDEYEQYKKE
Summary of the method: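 Readout given as % Ctrl, with DMSO as 100% and a control compound as 0%, scaling the test compound signal between them. Binding to human IRAK-M was assessed by KINOMEscan competition at the kinase active site.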

IC50 [1] | remaining binding at 1 µM [2] | IC50 [2] | inhibition at 3 µM [1] | SMILES
< 0.3 µM |  | 300 to 1000 nM |  | C[C@@H]1CN(CC(=O)N2CCN(C(=O)c3cc4cc(F)c(F)cc4n3C)C[C@H]2C)[C@@H](COCCOCCOCCOc2cc(CN3CCC(Oc4ccnc5ccsc45)CC3)on2)CN1 [Example 17, 1-((R)-4-(5,6-Difluoro-1-methyl-1H-indole-2-carbonyl)-2-methylpiperazin-1-yl)-2-((2R,5R)-5-methyl-2-((2-(2-(2-((5-((4-(thieno[3,2-b]pyridin-7-yloxy)piperidin-1-yl)methyl)isoxazol-3-yl)oxy)ethoxy)ethoxy)ethoxy)methyl)piperazin-1-yl)ethan-1-one hydrochloride]
< 0.3 µM |  | 300 to 1000 nM |  | Cc1cc2ccc(C(=O)N3CCN(C(=O)CN4C[C@@H](C)NC[C@@H]4COCCOCCOCCOc4cc(CN5CCC(Oc6ccnc7ccsc67)CC5)on4)CC3)cn2c1 [Example 18, 2-((2R,5R)-5-methyl-2-((2-(2-(2-((5-((4-(thieno[3,2-b]pyridin-7-yloxy)piperidin-1-yl)methyl)isoxazol-3-yl)oxy)ethoxy)ethoxy)ethoxy)methyl)piperazin-1-yl)-1-(4-(2-methylindolizine-6-carbonyl)piperazin-1-yl)ethan-1-one]
0.3 to 3 µM |  | 300 to 1000 nM |  | C[C@@H]1CN(CC(=O)N2CCN(C(=O)c3cc4cc(F)c(F)cc4n3C)C[C@H]2C)[C@@H](COCCOCCOCCOCCOc2cc(CN3CCC(Oc4ccnc5ccsc45)CC3)on2)CN1 [Example 19, 1-((R)-4-(5,6-difluoro-1-methyl-1H-indole-2-carbonyl)-2-methylpiperazin-1-yl)-2-((2R,5R)-5-methyl-2-(13-((5-((4-(thieno[3,2-b]pyridin-7-yloxy)piperidin-1-yl)methyl)isoxazol-3-yl)oxy)-2,5,8,11-tetraoxatridecyl)piperazin-1-yl)ethan-1-one]
0.3 to 3 µM | 25 to 50% |  |  | C[C@@H]1CN(CC(=O)N2CCN(C(=O)c3cc4cc(F)c(F)cc4n3C)C[C@H]2C)[C@@H](COCCOCCOc2cc(CN3CCC(Oc4ccnc5ccsc45)CC3)on2)CN1 [Example 20, 1-((R)-4-(5,6-difluoro-1-methyl-1H-indole-2-carbonyl)-2-methylpiperazin-1-yl)-2-((2R,5R)-5-methyl-2-((2-(2-((5-((4-(thieno[3,2-b]pyridin-7-yloxy)piperidin-1-yl)methyl)isoxazol-3-yl)oxy)ethoxy)ethoxy)methyl)piperazin-1-yl)ethan-1-one]
 | 25 to 50% |  | 25 to 50% | CN[C@@H](C)C(=O)N[C@H](C(=O)N1CCN(C(=O)c2c(OCCOCCOCCOc3cc(CN4CCC(Oc5ccnc6ccsc56)CC4)on3)c3cc(F)c(F)cc3n2C)CC1)C1CCCCC1 [Example 21, (S)-N-((S)-1-Cyclohexyl-2-(4-(5,6-difluoro-1-methyl-3-(2-(2-(2-((5-((4-(thieno[3,2-b]pyridin-7-yloxy)piperidin-1-yl)methyl)isoxazol-3-yl)oxy)ethoxy)ethoxy)ethoxy)-1H-indole-2-carbonyl)piperazin-1-yl)-2-oxoethyl)-2-(methylamino)propanamide hydrochloride]
 | 25 to 50% |  | 25 to 50% | CN[C@@H](C)C(=O)N[C@H](C(=O)N1CCN(C(=O)c2c(OCCOCCOc3cc(CN4CCC(Oc5ccnc6ccsc56)CC4)on3)c3cc(F)c(F)cc3n2C)CC1)C1CCCCC1 [Example 22, (S)-N-((S)-1-cyclohexyl-2-(4-(5,6-difluoro-1-methyl-3-(2-(2-((5-((4-(thieno[3,2-b]pyridin-7-yloxy)piperidin-1-yl)methyl)isoxazol-3-yl)oxy)ethoxy)ethoxy)-1H-indole-2-carbonyl)piperazin-1-yl)-2-oxoethyl)-2-(methylamino)propanamide]

Second part, the compound before the results:

SMILES | IC50 [1] | remaining binding at 1 µM [2] | IC50 [2] | inhibition at 3 µM [1]
CN[C@@H](C)C(=O)N[C@H](C(=O)N1CCN(C(=O)c2c(C(=O)N(C)CCOCCOCCOc3cc(CN4CCC(Oc5ccnc6ccsc56)CC4)on3)c3cc(F)c(F)cc3n2C)C[C@H]1C)C1CCCCC1 [Example 11, 2-((R)-4-((S)-2-cyclohexyl-2-((S)-2-(methylamino)propanamido)acetyl)-3-methylpiperazine-1-carbonyl)-5,6-difluoro-N,1-dimethyl-N-(2-(2-(2-((5-((4-(thieno[3,2-b]pyridin-7-yloxy)piperidin-1-yl)methyl)isoxazol-3-yl)oxy)ethoxy)ethoxy)ethyl)-1H-indole-3-carboxamide] | 3 to 30 µM | < 25% |  | 
CN[C@@H](C)C(=O)N[C@H](C(=O)N1CCN(C(=O)c2c(C(=O)NCCOCCOCCOc3cc(CN4CCC(Oc5ccnc6ccsc56)CC4)on3)c3cc(F)c(OC)cc3n2C)CC1)C1CCCCC1 [Example 13, 2-(4-((S)-2-cyclohexyl-2-((S)-2-(methylamino)propanamido)acetyl)piperazine-1-carbonyl)-5-fluoro-6-methoxy-1-methyl-N-(2-(2-(2-((5-((4-(thieno[3,2-b]pyridin-7-yloxy)piperidin-1-yl)methyl)isoxazol-3-yl)oxy)ethoxy)ethoxy)ethyl)-1H-indole-3-carboxamide] | < 0.3 µM | < 25% |  | 
CN[C@@H](C)C(=O)N[C@H](C(=O)N1CCN(C(=O)c2c(C(=O)N(C)CCOCCOCCOc3cc(CN4CCC(Oc5ccnc6ccsc56)CC4)on3)c3cc(F)ccc3n2C)CC1)[C@H](O)C(C)C [Example 14, 5-fluoro-2-(4-((2S,3R)-3-hydroxy-4-methyl-2-((S)-2-(methylamino)propanamido)pentanoyl)piperazine-1-carbonyl)-N,1-dimethyl-N-(2-(2-(2-((5-((4-(thieno[3,2-b]pyridin-7-yloxy)piperidin-1-yl)methyl)isoxazol-3-yl)oxy)ethoxy)ethoxy)ethyl)-1H-indole-3-carboxamide] | 3 to 30 µM | < 25% |  | 
CN[C@@H](C)C(=O)N[C@@H](Cn1cccn1)C(=O)N1CCN(C(=O)c2c(C(=O)N(C)CCOCCOCCOc3cc(CN4CCC(Oc5ccnc6ccsc56)CC4)on3)c3cc(F)ccc3n2C)CC1 [Example 15, 5-fluoro-N,1-dimethyl-2-(4-((S)-2-((S)-2-(methylamino)propanamido)-3-(1H-pyrazol-1-yl)propanoyl)piperazine-1-carbonyl)-N-(2-(2-(2-((5-((4-(thieno[3,2-b]pyridin-7-yloxy)piperidin-1-yl)methyl)isoxazol-3-yl)oxy)ethoxy)ethoxy)ethyl)-1H-indole-3-carboxamide] | 0.3 to 3 µM | 25 to 50% |  | 
CN[C@@H](C)C(=O)N[C@H](C(=O)N1CCN(C(=O)c2c(C(=O)N(C)CCOCCOCCOc3cc(CN4CCC(Oc5ccnc6ccsc56)CC4)on3)c3cc(F)ccc3n2C)CC1)C(C)(C)O [Example 16, 5-fluoro-2-(4-((S)-3-hydroxy-3-methyl-2-((S)-2-(methylamino)propanamido)butanoyl)piperazine-1-carbonyl)-N,1-dimethyl-N-(2-(2-(2-((5-((4-(thieno[3,2-b]pyridin-7-yloxy)piperidin-1-yl)methyl)isoxazol-3-yl)oxy)ethoxy)ethoxy)ethyl)-1H-indole-3-carboxamide] | 0.3 to 3 µM | 25 to 50% |  | 
